{"source": "patent US20090176743A1", "about": "(priority 2005, published 2009)", "key": {"ICP0^− virus (n212)": {"test_system": "ICP0^− virus (n212)", "format": "cell-based, HSV-1", "details": "for effect of combined arginine and methionine deprivation on plating efficiency of ICP0- virus: three days in media containing all combinations of arginine, methionine and glutamine (FIG. 15); for effect of deprivation/refeeding on plating efficiency of ICP0- virus: 42 h in medium lacking the amino acid, normal medium 9 h, then n212 (FIG. 9)", "procedure": "Like isoleucine deprivation, serum starvation is a method commonly used to synchronize cells to G1 phase of the cell cycle. We then replaced the media with normal growth medium, infected cells with wild type (KOS) or ICP0^− virus (n212), and analyzed cells for cellular DNA content at 3-h intervals (FIG. 7).\nWe infected the monolayers with an ICP0^− virus (n212) 9 h after the addition of normal medium (FIG. 8).\nMedia were replaced with normal growth medium, and after a 9-h incubation, monolayers were infected with ICP0^− (n212).\nCells were then infected with wild type or ICPO-virus to determine plating efficiency as described herein. […] In order to determine the role of isoleucine in these experiments, monolayers of cells were incubated for 42 hours in normal medium (Gln+ Ile+) or media lacking Ile, Gln, or both. Cells were then infected with wild type or ICP0^− virus to determine plating efficiency as described herein.\nFor these experiments, monolayers were incubated for 1-5 days in the absence of each of the 15 amino acids present in DMEM. Cells were then infected with wild type or ICPO-virus to determine plating efficiency as described herein.\nCells were then infected with wild type or ICPO-virus to determine plating efficiency as described herein.\nA. Ile deprivation and serum starvation. DMEM was prepared by dissolving all components individually, except Ile and Gln, in water according to Invitrogen's formulation for DMEM (catalog #11965) with 3 substitutions: 200 mg/l calcium chloride (anhydrous) for 264.92 mg/l calcium chloride dihydrate, 48 mg/l L-cystine for 63 mg/l L-cystine dihydrochloride, and 72 mg/l L-tyrosine for 104 mg/l L-tyrosine disodium salt, dihydrate. Medium was sterilized by passage through a 0.22 μm filter. Ile and Gln were added as needed, not more than two days prior to use, at final concentrations of 0.802 or 2 mM, respectively.\nSixty-mm petri plates were seeded with 5×10^5 cells/plate and incubated 24 h at 37° C. For Ile deprivation experiments, medium was removed and monolayers were washed with warm Hanks' Balanced Salt Solution (HBSS) (37° C.) and overlaid with 4 ml warm Ile-free DMEM with 10% dialyzed FBS and 0 or 2 mM Gln. For serum starvation experiments, medium was removed and monolayers were washed with warm HBSS and overlaid with 4 ml warm serum-free DMEM with 0.802 mM Ile and 0 or 2 mM Gln. Monolayers in Ile- or serum-free media were incubated 42 h at 37° C. Media were replaced with warm DMEM containing 10% non-dialyzed FBS, 0.802 Ile, and 2 mM Gln. At 3-h intervals monolayers were infected with wild-type or ICP0-viruses to determine plating efficiency or analyzed for cellular DNA content by flow cytometry as described below.\nInfections to determine plating efficiency. Vero cell monolayers in 35-, 60-, and 100-mm plates were infected with volumes of 200 μl, 400 μl, or 2 ml/plate, respectively, with 5, 10, 20, 40, or 100 PFU/plate. For all experiments except Ile deprivation and serum starvation, titers were determined on 24-h-old Vero cell monolayers that had been seeded at a concentration of 1.5×10^5 Vero cells/35-mm plate and incubated at 37° C. […] Plates were incubated at 37° C. and shaken every 15 minutes for 1 h. Two, 4, or 10 ml of DMEM containing 5% FBS and 0.5% methyl cellulose was added to 35-, 60-, and 100-mm plates, respectively, and monolayers were incubated 3-5 days at 37° C. to allow plaques to form. Medium was aspirated, cells were stained with crystal violet, and plaques were counted."}, "HSV-1 (KOS strain)": {"test_system": "HSV-1 (KOS strain)", "experiment": "Heat-stress reactivation of latent HSV in mice treated with glutamine (Example 5)", "format": "in vivo, mouse", "details": "intraperitoneally or orally, heat stress 43° C. water 10 minutes", "procedure": "The strain of HSV and the method of propagation can be as described in Example 1.\nThe mice can be infected by, e.g., the topical ocular route, and the establishment of a corneal infection can be documented by slit lamp examination and ocular swabs on day 3 after infection. Only animals which are successfully infected are retained for use in these experiments. Thirty days after infection, groups of latently infected and uninfected mice are treated with the glutamine composition. […] The mice are treated one day before heat stress and the day of the heat stress.\nThe glutamine composition can be given intraperitoneally in some groups of mice and orally in others. This treatment can be continued on the day the animals are heat stressed by immersion into 43° C. water for 10 minutes. Twenty-four hours after the hyperthermic stress, the eyes are swabbed to culture any infectious virus, and the mice killed to collect the trigeminal ganglia. Ocular swabs are incubated in culture medium which is then transferred to Vero cell monolayers in 96 well culture plates. Units of infectious herpesvirus are recorded as units of cytopathic effect over a period of seven days. […] The units of cytopathic effect are recorded over a seven day incubation period. […]"}, "[1]": {"test_system": "wild-type virus latent in mouse trigeminal ganglia", "experiment": "Mouse ocular/trigeminal ganglia (TG) cell culture model of reactivation from latency", "format": "cell-based, HSV-1", "procedure": "(For details on the model, see, for example, Leib et al., J. Virol. 63:759-768 (1989), Halford et al., J. Virol. 74:5957-5967. (2000), and Halford et al., J. Virol. 75:3240-3249 (2001)). For this experiment, mice were infected with the wild-type virus and 30 days later the trigeminal ganglia (TG) were removed and incubated in 3 24-well plates in medium containing acyclovir (ACV). As indicated below the x-axis of FIG. 16, on day 7 the acyclovir was removed. On day 11, 1 24-well plate was treated by: washing once with HBSS and replacing with Gln-free medium supplemented with 10% dialyzed FBS (red); washing once with HBSS and replacing with Gln-containing medium supplemented with 10% dialyzed FBS (green); or 3-hour incubation at 43° C. followed by replacement of medium with fresh medium (blue). On day 13, Gln-free and Gln-containing medium with dialyzed FBS was replaced with medium containing Gln and 10% normal FBS. On day 16, the 2 plates not previously heat shocked were incubated for 3 hours at 43° C. followed by replacement of medium with fresh medium. Starting on day 10, 10% of the volume of each well was transferred daily to 1 well of a 96-well plate previously seeded with Vero cells. After incubation at 37° C. for 7 days, monolayers of Vero cells in the 96-well plates were examined by light microscopy for cytopathic effect. […]"}, "ICP4 promoter-CAT [2]": {"test_system": "ICP4 promoter-CAT", "experiment": "Promoter-CAT expression in Vero cells after Ile deprivation/refeeding", "format": "cell-based, HSV-1", "details": "0-6 hours post-release", "procedure": "(§1) Vero cells and NB41A3 cells (mouse neuroblastoma cells) were treated by Ile deprivation/refeeding as in the previous experiment. The expression of viral gene promoters was then analyzed. Promoter-chloramphenicol acetyltransferase (CAT) expression from plasmids was measured following transfection of Vero cells treated by Ile-deprivation/refeeding. ICP0 and ICP4 promoter-CAT expression increased 6- or 4-fold, respectively, at early times (0-6 hours post-release) then decreased through 10 hours post-release. In cells from the mouse neuroblastoma cell line, NB41A3, ICP0, ICP4, and ICP22/47 promoter-CAT expression was increased 6-, 10-, or 5-fold, respectively."}, "ICP0 promoter-CAT [3]": {"test_system": "ICP0 promoter-CAT", "experiment": "Promoter-CAT expression in Vero cells after Ile deprivation/refeeding", "format": "cell-based, HSV-1", "details": "0-6 hours post-release", "procedure": "as §1"}, "ICP4 promoter-CAT [4]": {"test_system": "ICP4 promoter-CAT", "experiment": "Promoter-CAT expression in NB41A3 cells after Ile deprivation/refeeding", "format": "cell-based, HSV-1", "details": "NB41A3 mouse neuroblastoma cells", "procedure": "as §1"}, "ICP0 promoter-CAT [5]": {"test_system": "ICP0 promoter-CAT", "experiment": "Promoter-CAT expression in NB41A3 cells after Ile deprivation/refeeding", "format": "cell-based, HSV-1", "details": "NB41A3 mouse neuroblastoma cells", "procedure": "as §1"}, "ICP22/47 promoter-CAT": {"test_system": "ICP22/47 promoter-CAT", "experiment": "Promoter-CAT expression in NB41A3 cells after Ile deprivation/refeeding", "format": "cell-based, HSV-1", "details": "NB41A3 mouse neuroblastoma cells", "procedure": "as §1"}, "wt (KOS) virus": {"test_system": "wt (KOS) virus", "details": "Ile-free medium 42 hours, refeeding; all time points; cited from earlier work"}, "ICP0^− (7134) virus": {"test_system": "ICP0^− (7134) virus", "details": "Ile-free medium 42 hours, refeeding; first 8 h post-release; cited from earlier work"}, "HSV": {"test_system": "HSV", "details": "presence of L-lysine; cited from earlier work"}}, "note": "“Also recorded” adds a separate entry of the source.", "data": [{"smiles": "N=C(N)NCCC[C@H](N)C(=O)O", "note": "[arginine]", "values": [{"measurement": "effect of combined arginine and methionine deprivation on plating efficiency of ICP0- virus", "setting": "ICP0^− virus (n212)", "value": "synergistic effect"}]}, {"smiles": "NC(=O)CC[C@H](N)C(=O)O", "note": "[glutamine]", "values": [{"measurement": "units of infectious herpesvirus on the ocular surface vs untreated heat-stressed animals", "setting": "HSV-1 (KOS strain)", "value": "statistically significantly lower units of infectious herpesvirus"}, {"measurement": "reactivation of wild-type virus from latency (wells positive for cytopathic effect)", "setting": "[1]; TG incubated in 0 mM Gln (FIG. 16)", "value": "reactivated more rapidly and to the same extent as heat-shocked TG"}, {"measurement": "reactivation of wild-type virus from latency (wells positive for cytopathic effect)", "setting": "[1]; TG incubated in the presence of 2 mM Gln (FIG. 16)", "value": "significantly reduced reactivation"}]}, {"smiles": "CC[C@H](C)[C@H](N)C(=O)O", "note": "[isoleucine]", "values": [{"measurement": "increase of ICP4 promoter-CAT expression", "setting": "ICP4 promoter-CAT [2]", "value": 4, "unit": "fold"}, {"measurement": "increase of ICP0 promoter-CAT expression", "setting": "ICP0 promoter-CAT [3]", "value": 6, "unit": "fold"}, {"measurement": "increase of ICP4 promoter-CAT expression", "setting": "ICP4 promoter-CAT [4]", "value": 10, "unit": "fold"}, {"measurement": "increase of ICP0 promoter-CAT expression", "setting": "ICP0 promoter-CAT [5]", "value": 6, "unit": "fold"}, {"measurement": "increase of ICP22/47 promoter-CAT expression", "setting": "ICP22/47 promoter-CAT", "value": 5, "unit": "fold"}, {"measurement": "number of plaques produced by wild type virus", "setting": "wt (KOS) virus", "value": "same number of plaques at all time points tested"}, {"measurement": "effect of deprivation/refeeding on plating efficiency of ICP0- virus", "setting": "ICP0^− virus (n212)", "value": "little or no effect"}, {"measurement": "increase in number of plaques produced by the ICP0- virus", "setting": "ICP0^− (7134) virus", "value": 6, "unit": "fold"}]}, {"smiles": "NCCCC[C@H](N)C(=O)O", "note": "[lysine, L-lysine]", "values": [{"measurement": "replication efficiency of HSV in cell culture", "setting": "HSV", "value": "decrease the replication efficiency"}, {"measurement": "effect of deprivation/refeeding on plating efficiency of ICP0- virus", "setting": "ICP0^− virus (n212)", "value": "slight enhancement; also recorded: slight increase"}, {"measurement": "enhancement of plating efficiency of ICP0- virus by deprivation/refeeding", "setting": "ICP0^− virus (n212); separate experiment", "value": "2-3 fold"}]}, {"smiles": "CSCC[C@H](N)C(=O)O", "note": "[methionine]", "values": [{"measurement": "effect of combined arginine and methionine deprivation on plating efficiency of ICP0- virus", "setting": "ICP0^− virus (n212)", "value": "synergistic effect"}]}]}
